For 18 molecules, EC50 results are on record in patent US10800772B2 (Gilead Sciences, Inc., priority 2016, dated 2020).

Read-outs that look alike come from different tables or passages of the source.

What all share (assay type): cell-based, HIV-1
In one assay the test system is HIV-IIIb (wildtype). Kind of assay: Antiviral assay in MT4 cells, HIV-IIIb wildtype. To be noted: read-out: WT EC50. The method, boiled down: (§1)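 Each EC50 is the compound concentration that reduced CellTiter-Glo luminescence by 50% after 5 days of culture of HIV-IIIb-infected MT4 cells. Infection was at 0.004 m.o.i. with 3 h pre-incubation. Testing used 10 concentrations in quadruplicate.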

The next assay deals with HIV-IIIb IN T174I BT. Kind of assay: Antiviral assay in MT4 cells, HIV-IIIb IN T174I BT virus (from viral breakthrough). The essentials:
as §1

In another assay the test system is HIV-IIIb IN T174I DE. Kind of assay: Antiviral assay in MT4 cells, HIV-IIIb IN T174I DE virus (from dose escalation passaging). The essentials:
as §1

[1] abbreviates: Human immunodeficiency virus 1, IIIB, MT4, 120 h.
Setting [2] is: Human immunodeficiency virus 1, IIIB, MT4, 120 h, read-out: T174I BT EC50, MT4 cells, HIV-IIIb IN T174I BT (viral breakthrough), 5 days, CellTiter-Glo.
Setting [3] is: Human immunodeficiency virus 1, IIIB, MT4, 120 h, read-out: T174I DE EC50, MT4 cells, HIV-IIIb IN T174I DE (dose escalation), 5 days, CellTiter-Glo.

What is called EC50 is the concentration giving half of the maximal effect. Turning to `COCC(=O)N1CCC(c2nn(C)c3ccc(-c4nc5cc(C)c([C@H](OC(C)(C)C)C(=O)O)c(-c6ccc(Cl)cc6)c5s4)cc23)C1` (stereo partly drawn) [Compound 76, (S)-2-(tert-butoxy)-2-(7-(4-chlorophenyl)-2-(3-((S)-1-(2-methoxyacetyl)pyrrolidin-3-yl)-1-methyl-1H-indazol-5-yl)-5-methylbenzo[d]thiazol-6-yl)acetic acid], the EC50 in the assay on HIV-IIIb (wildtype) (MT4 cells, HIV-IIIb wildtype, 5 days, CellTiter-Glo) was 0.016 µM; in the assay with HIV-IIIb IN T174I BT (read-out: T174I BT EC50, MT4 cells, HIV-IIIb IN T174I BT (viral breakthrough), 5 days, CellTiter-Glo), 0.51 µM; in the assay on HIV-IIIb IN T174I DE (read-out: T174I DE EC50, MT4 cells, HIV-IIIb IN T174I DE (dose escalation), 5 days, CellTiter-Glo), 0.906 µM.
As to `Cc1cc2nc(-c3ccc4c(c3)c(N3CCNC3=O)nn4C)sc2c(-c2ccc(Cl)cc2)c1[C@H](OC(C)(C)C)C(=O)O` [Compound 78, (S)-2-(tert-butoxy)-2-(7-(4-chlorophenyl)-5-methyl-2-(1-methyl-3-(2-oxoimidazolidin-1-yl)-1H-indazol-5-yl)benzo[d]thiazol-6-yl)acetic acid], the 50% effective concentration (EC50) in the assay with HIV-IIIb (wildtype) (setting [1]) came out at 0.032 µM; with HIV-IIIb IN T174I BT (setting [2]), 2.69 µM; with HIV-IIIb IN T174I DE (setting [3]) it was 3.19 µM.
As to `COCCN1CCN(c2nn(C)c3ccc(-c4nc5cc(C)c([C@H](OC(C)(C)C)C(=O)O)c(-c6ccc(Cl)cc6)c5s4)cc23)C1=O` [Compound 79, (S)-2-(tert-butoxy)-2-(7-(4-chlorophenyl)-2-(3-(3-(2-methoxyethyl)-2-oxoimidazolidin-1-yl)-1-methyl-1H-indazol-5-yl)-5-methylbenzo[d]thiazol-6-yl)acetic acid], the EC50 is 0.007 µM in the assay with HIV-IIIb (wildtype) (setting [1]), 2.33 µM in the assay with HIV-IIIb IN T174I BT (setting [2]) and 2.18 µM in the assay on HIV-IIIb IN T174I DE (setting [3]).
On to `CCN1CCN(c2nn(C)c3ccc(-c4nc5cc(C)c([C@H](OC(C)(C)C)C(=O)O)c(-c6ccc(Cl)cc6)c5s4)cc23)C1=O` [Compound 82, (S)-2-(tert-butoxy)-2-(7-(4-chlorophenyl)-2-(3-(3-ethyl-2-oxoimidazolidin-1-yl)-1-methyl-1H-indazol-5-yl)-5-methylbenzo[d]thiazol-6-yl)acetic acid], for which the figures for the EC50 in the assay with HIV-IIIb (wildtype) (setting [1]), with HIV-IIIb IN T174I BT (setting [2]) and in the assay on HIV-IIIb IN T174I DE (setting [3]) were 0.014 µM, 3.09 µM and 3.87 µM, respectively.
`Cc1cc2nc(-c3ccc4c(c3)c(N3CCN(CCN5CCOCC5)C3=O)nn4C)sc2c(-c2ccc(Cl)cc2)c1[C@H](OC(C)(C)C)C(=O)O` [Compound 83, (S)-2-(tert-butoxy)-2-(7-(4-chlorophenyl)-5-methyl-2-(1-methyl-3-(3-(2-morpholinoethyl)-2-oxoimidazolidin-1-yl)-1H-indazol-5-yl)benzo[d]thiazol-6-yl)acetic acid]: the half-maximal effective concentration (EC50) amounted to 0.017 µM in the assay on HIV-IIIb (wildtype) (setting [1]), 2.23 µM in the assay with HIV-IIIb IN T174I BT (setting [2]) and 2.81 µM in the assay with HIV-IIIb IN T174I DE (setting [3]).
On to `CCN1CCN(c2nn(C)c3ccc(-c4nc5cc(C)c([C@H](OC(C)(C)C)C(=O)O)c(-c6ccc(Cl)cc6)c5s4)cc23)CC1=O` [Compound 84, (S)-2-(tert-butoxy)-2-(7-(4-chlorophenyl)-2-(3-(4-ethyl-3-oxopiperazin-1-yl)-1-methyl-1H-indazol-5-yl)-5-methylbenzo[d]thiazol-6-yl)acetic acid], for which the EC50 in the assay with HIV-IIIb (wildtype) (setting [1]) worked out at 0.048 µM; in the assay with HIV-IIIb IN T174I BT (setting [2]), 1.25 µM; in the assay on HIV-IIIb IN T174I DE (setting [3]) it was 1.87 µM.
Regarding `Cc1cc2nc(-c3ccc4c(c3)c(N3CCN(C)C(=O)C3)nn4C)sc2c(-c2ccc(Cl)cc2)c1[C@H](OC(C)(C)C)C(=O)O` [Compound 85, (S)-2-(tert-butoxy)-2-(7-(4-chlorophenyl)-5-methyl-2-(1-methyl-3-(4-methyl-3-oxopiperazin-1-yl)-1H-indazol-5-yl)benzo[d]thiazol-6-yl)acetic acid], the results for the EC50 with HIV-IIIb (wildtype) (setting [1]), in the assay on HIV-IIIb IN T174I BT (setting [2]) and in the assay on HIV-IIIb IN T174I DE (setting [3]) were 0.057 µM, 1.35 µM and 1.17 µM, respectively.
As for `CCN1CCN(c2nn(C)c3ccc(-c4nc5cc(C)c([C@H](OC(C)(C)C)C(=O)O)c(-c6ccc(Cl)cc6)c5s4)cc23)C(=O)C1` [Compound 86, (S)-2-(tert-butoxy)-2-(7-(4-chlorophenyl)-2-(3-(4-ethyl-2-oxopiperazin-1-yl)-1-methyl-1H-indazol-5-yl)-5-methylbenzo[d]thiazol-6-yl)acetic acid], the EC50 in the assay with HIV-IIIb (wildtype) (setting [1]) came to 0.015 µM; with HIV-IIIb IN T174I BT (setting [2]), 2.33 µM; in the assay with HIV-IIIb IN T174I DE (setting [3]), 2 µM.
As to `Cc1cc2nc(-c3ccc4c(c3)c(N3CC(N5CCOCC5)C3)nn4C)sc2c(-c2ccc(Cl)cc2)c1[C@H](OC(C)(C)C)C(=O)O` [Compound 88, (S)-2-(tert-butoxy)-2-(7-(4-chlorophenyl)-5-methyl-2-(1-methyl-3-(3-morpholinoazetidin-1-yl)-1H-indazol-5-yl)benzo[d]thiazol-6-yl)acetic acid], the EC50 was determined as 0.01 µM in the assay on HIV-IIIb (wildtype) (setting [1]), 1.24 µM in the assay with HIV-IIIb IN T174I BT (setting [2]) and 1.7 µM in the assay with HIV-IIIb IN T174I DE (setting [3]).
Take `Cc1cc2nc(-c3ccc4c(c3)c(N3CC5(CN(C)C5)C3)nn4C)sc2c(-c2ccc(Cl)cc2)c1[C@H](OC(C)(C)C)C(=O)O` [Compound 89, (S)-2-(tert-butoxy)-2-(7-(4-chlorophenyl)-5-methyl-2-(1-methyl-3-(6-methyl-2,6-diazaspiro[3.3]heptan-2-yl)-1H-indazol-5-yl)benzo[d]thiazol-6-yl)acetic acid]: the values for the EC50 with HIV-IIIb (wildtype) (setting [1]), with HIV-IIIb IN T174I BT (setting [2]) and with HIV-IIIb IN T174I DE (setting [3]) were 0.107 µM, 57 µM and 57 µM, respectively.
Consider `Cc1cc2nc(-c3ccc4c(c3)c(N3CC(N(C)C)C3)nn4C)sc2c(-c2ccc(Cl)cc2)c1[C@H](OC(C)(C)C)C(=O)O` [Compound 90, (S)-2-(tert-butoxy)-2-(7-(4-chlorophenyl)-2-(3-(3-(dimethylamino)azetidin-1-yl)-1-methyl-1H-indazol-5-yl)-5-methylbenzo[d]thiazol-6-yl)acetic Acid], for which the EC50 with HIV-IIIb (wildtype) (setting [1]) is 0.008 µM; with HIV-IIIb IN T174I BT (setting [2]), 1.18 µM; in the assay with HIV-IIIb IN T174I DE (setting [3]) it was 1.35 µM.
In the case of `Cc1cc2nc(-c3ccc4c(c3)c(N3CC5(COC5)C3)nn4C)sc2c(-c2ccc(Cl)cc2)c1[C@H](OC(C)(C)C)C(=O)O` [Compound 91, (S)-2-(tert-butoxy)-2-(7-(4-chlorophenyl)-5-methyl-2-(1-methyl-3-(2-oxa-6-azaspiro[3.3]heptan-6-yl)-1H-indazol-5-yl)benzo[d]thiazol-6-yl)acetic acid], the EC50 in the assay with HIV-IIIb (wildtype) (setting [1]) came out at 0.011 µM; in the assay on HIV-IIIb IN T174I BT (setting [2]), 1.72 µM; in the assay on HIV-IIIb IN T174I DE (setting [3]), 2.44 µM.
As for `Cc1cc2nc(-c3ccc4c(c3)c(N3CC[C@H](N(C)C)C3)nn4C)sc2c(-c2ccc(Cl)cc2)c1[C@H](OC(C)(C)C)C(=O)O` [Compound 93, (S)-2-(tert-butoxy)-2-(7-(4-chlorophenyl)-2-(3-((S)-3-(dimethylamino)pyrrolidin-1-yl)-1-methyl-1H-indazol-5-yl)-5-methylbenzo[d]thiazol-6-yl)acetic acid], the concentration for a half-maximal effect (EC50) in the assay with HIV-IIIb (wildtype) (setting [1]) came to 0.013 µM; with HIV-IIIb IN T174I BT (setting [2]) it was 1.01 µM; in the assay on HIV-IIIb IN T174I DE (setting [3]), 3.45 µM.
For the molecule `CN[C@H]1CCN(c2nn(C)c3ccc(-c4nc5cc(C)c([C@H](OC(C)(C)C)C(=O)O)c(-c6ccc(Cl)cc6)c5s4)cc23)C1` [Compound 94, (S)-2-(tert-butoxy)-2-(7-(4-chlorophenyl)-5-methyl-2-(1-methyl-3-((S)-3-(methylamino)pyrrolidin-1-yl)-1H-indazol-5-yl)benzo[d]thiazol-6-yl)acetic acid], the concentration for a half-maximal effect (EC50) was 0.038 µM in the assay on HIV-IIIb (wildtype) (setting [1]), 2.72 µM with HIV-IIIb IN T174I BT (setting [2]) and 2.52 µM in the assay with HIV-IIIb IN T174I DE (setting [3]).
For the molecule `CN[C@@H]1CCN(c2nn(C)c3ccc(-c4nc5cc(C)c([C@H](OC(C)(C)C)C(=O)O)c(-c6ccc(Cl)cc6)c5s4)cc23)C1` [Compound 95, (S)-2-(tert-butoxy)-2-(7-(4-chlorophenyl)-5-methyl-2-(1-methyl-3-((R)-3-(methylamino)pyrrolidin-1-yl)-1H-indazol-5-yl)benzo[d]thiazol-6-yl)acetic acid], the EC50 in the assay with HIV-IIIb (wildtype) (setting [1]) was 0.041 µM; with HIV-IIIb IN T174I BT (setting [2]), 1.75 µM; in the assay on HIV-IIIb IN T174I DE (setting [3]), 11.5 µM.
On to `Cc1cc2nc(-c3ccc4c(c3)c(N3CC5(CCCCC5)C3)nn4C)sc2c(-c2ccc(Cl)cc2)c1[C@H](OC(C)(C)C)C(=O)O` [Compound 97, (S)-2-(tert-butoxy)-2-(7-(4-chlorophenyl)-5-methyl-2-(1-methyl-3-(2-azaspiro[3.5]nonan-2-yl)-1H-indazol-5-yl)benzo[d]thiazol-6-yl)acetic acid], for which the EC50 with HIV-IIIb (wildtype) (setting [1]) came to 0.15 µM; with HIV-IIIb IN T174I BT (setting [2]) it was 6.81 µM; in the assay on HIV-IIIb IN T174I DE (setting [3]) it was 9.19 µM.
For the molecule `Cc1cc2nc(-c3ccc4c(c3)c(N3CC5CC(C3)N5C)nn4C)sc2c(-c2ccc(Cl)cc2)c1[C@H](OC(C)(C)C)C(=O)O` [Compound 101, (2S)-2-(tert-butoxy)-2-(7-(4-chlorophenyl)-5-methyl-2-(1-methyl-3-(6-methyl-3,6-diazabicyclo[3.1.1]heptan-3-yl)-1H-indazol-5-yl)benzo[d]thiazol-6-yl)acetic Acid], the 50% effective concentration (EC50) with HIV-IIIb (wildtype) (Human immunodeficiency virus 1, 120 h, MT4 cells, HIV-IIIb wildtype, 5 days, CellTiter-Glo) came to 0.058 µM; in the assay with HIV-IIIb IN T174I BT (setting [2]) it was 57 µM; in the assay with HIV-IIIb IN T174I DE (setting [3]) it was 57 µM.
As to `COC(=O)N(C)C1CN(c2nn(C)c3ccc(-c4nc5cc(C)c([C@H](OC(C)(C)C)C(=O)O)c(-c6ccc(Cl)cc6)c5s4)cc23)C1` [Compound 102, (S)-2-(tert-butoxy)-2-(7-(4-chlorophenyl)-2-(3-(3-((methoxycarbonyl)(methyl)amino)azetidin-1-yl)-1-methyl-1H-indazol-5-yl)-5-methylbenzo[d]thiazol-6-yl)acetic acid], the values for the concentration for a half-maximal effect (EC50) in the assay with HIV-IIIb (wildtype) (setting [1]), with HIV-IIIb IN T174I BT (setting [2]) and in the assay on HIV-IIIb IN T174I DE (setting [3]) were 0.013 µM, 0.934 µM and 1.27 µM, respectively.
